Results as given in US20050037446A1, “Agents that recognize src when phosphorylated at serine 17” (priority 2001, published 2005).

Key:
Rap1 [1] = conditions: NIH3T3 cells, pretreatment; cited from earlier work
Rap1 [2] = assay: Rap1 activation affinity assay (GST-RalGDS pull-down), NIH3T3 cells; type: cell-based
Method: NIH3T3 cells (American Type Culture Collection, ATCC, Manassas, Va.) were cultured in Dulbecco-Modified Eagle Medium (DMEM) plus 10% fetal calf serum, penicillin/streptomycin, and L-glutamine at 37° C. in 5% CO2. Cells were maintained in serum-free DMEM for 16 hours at 37° C. in 5% CO2 prior to treatment. NIH3T3 cells were trasfected with Flag-Rap1 (see Vossler et al., Cell, 89:73-82, 1997) or stimulated with Forskolin (10 μM, Cal Biochem, Riverside, Calif.) for five minutes. Forskolin treated cells received either a pretreatment or post-treatment with 10 μM N-[2(Bromocimamylamino) ethyl]-5-isoquinolinesulfonamide (H89) (Cal Biochem, Riverside, Calif.) for 20 minutes.
Cells were co-transfected with Flag-Rap1 at seventy to eighty percent confluency with the cDNA using a Lipofectamine 2000 kit (Gibco BRL, Rockville, Md.) according to the manufacturer's instructions. The control vector, pcDNA3 (Invitrogen Corp.), was included in each set of transfections to assure that each plate received the same amount of DNA. Following transfection, cells were allowed to recover in serum containing media for 24 hours. Cells were then starved overnight in serum-free DMEM before treatment and lysis.
After treatment, cells were lysed in ice-cold lysis buffer (50 mM Tris-HCL (pH 8.0), 10% glycerol, 1% nonidet P40, 200 mM NaCl, 2.5 mM MgCl2, 1 mM phenylmethylsulfonyl fluoride, 1 μM leupeptin, 10 μln soybean trypsin inhibitor, 10 mM NaF, 0.1 μM aprotinin, and 1 mM NaVO4). Nuclei and cytoskeleton were removed from equivalent amounts of lysate by centrifugation at 5,000 rpm for five minutes. The supernatant was centrifuged at 100,000×g for one hour at 4° C. and, the resultant membrane was resuspended in cold lysis buffer. Aliquots of the membrane fraction were analyzed for the presence of C3G by Western blotting. The cytosolic or membrane fractions of treated or untreated cells were mixed with equivalent amounts of lysates from untreated Flag-Rap1 transfected cells. The mixture was incubated at 37° C. for five minutes and equal amounts of lysate were analyzed using the Rap1 activation assay to monitor Flag-Rap 1 activation by Gst-RalGDS.
The Rap1 activation affinity assay was performed as follows. A GST fusion protein of the Rap1-binding domain of RalGDS (GST-RalGDS, Dr. Bos, Utrecht University, The Netherlands) was expressed in E. coli following induction by isopropyl-1thio-β-D-galactopyranoside. Active Rap1 was isolated as previously described (Franke et al., EMBO J. 16:252-9, 1997). Briefly, equivalent amounts of supernatants (500 μg) were incubated with GST-RalGDS-Rap1 binding domain coupled to glutathione beads. Following a one hour incubation at 4° C., beads were pelleted and rinsed threes times with ice-cold lysis buffer. […] Proteins were detected using enhanced chemiluminescence.

Cb1 = Cb1 tyrosine phosphorylation (immunoprecipitation/Western blot), NIH3T3 cells; type: cell-based; conditions: 10 μM, 20 minutes
Method: To determine the role of C3G and its complex in Rap1 activation, NIH3T3 cells were grown and treated for 20 minutes in the presence or absence of H89 (10 μM) or PP2 [AG1879; 4-amino-5-(4-chlorophenyl)-7-(t-butyl)pyazolo[3,4-d]pyrimidine, LY294002 [2-(4-Morpholinyl)-8-phenyl-4H-1-bemzopyran-4-one] (10 μM, Cal Biochem), treated with Forskolin (10 μM, Cal Biochem) for five minutes, and cell lysates prepared, as described above. Endogenous Cb1 was immunoprecipitated using a Cb1 antibody (Santa Cruz Biotechnology Inc.) from cell lysates and analyzed by Western blot for tyrosine phosphorylation, using a pTyr antibody (Santa Cruz Biotechnology Inc.) as described above. Briefly, for immunoprecipitation of Cb1, equal amounts of cell lysate per condition were precipitated at 4° C. for 4 to 6 hours in lysis buffer. Proteins were resolved by SDS-PAGE, blotted onto PVDF membranes and probed with the appropriate antibodies. All Western blots and immunoprecipitations were performed at least three times.

[3] = test system: complex including C3G, Crk-L, and Cb1; assay: Cb1/Crk-L/C3G complex formation (myc-Cb1 immunoprecipitation), NIH3T3 cells; type: cell-based
From the text: To determine if Cb1 forms part of a complex, cells were stimulated with Forskolin in the presence or absence of H89 or PP2 and lysates generated as described above. Myc-Cb1 was immunoprecipitated from treated cells and the pellets analyzed by Western blot using antibodies specific for Crk-L and C3G. Total cell lysates were examined for myc-Cb1 by Western blot using a myc antibody (Santa Cruz Biotechnology Inc.). NIH3T3 cells express Crk-L, an isoform of Crk that is constitutively bound to C3G.

AKT = AKT phosphothreonine 308 Western blot, Hek293 cells; type: cell-based
Method: To determine the physiological role of Ras signaling in Hek293 cells, a well-known Ras effector, phosphoinositol-3 kinase (PI3-K) and its target, AKT (a serine/threonine kinase which participates in a variety of cellular effects including cell survival, adhesion, and cell growth) were examined as follows. Hek293 cells received no pretreatment or were pretreated for 20 minutes with H89 (10 μM), PP2 (10 μM), or LY (10 μM), and stimulated for 5 minutes with isoproterenol. Cell lysates were analyzed by Western blotting for phospho-AKT (PAKT 308, Cell Signaling, Beverly, Mass.) or total AKT (Cell Signaling) as a control. Isoproterenol activated AKT, as measured by phosphorylation-specific antibodies to phosphothreonine 308 (AKT). This phosphorylation required P13-K as LY blocked isoproterenol-induced phosphorylation at this site. Moreover, this phosphorylation was blocked by PP2, but not H89, indicating the requirement of SFKs, but not PKA. Therefore, isoproterenol's activation of AKT proceeds through Src and PI3-K but not PKA.
Similar amounts of cell lysate (determined by protein concentrations) were immunoprecipitated using an agarose-coupled HA antibody followed by Western blotting for phospho-AKT (PHA-AKT 308) or total HA-AKT with an HA antibody (12CA5, Boehringer Mannheim, Indianapolis, Ind.).

| Structure (SMILES) | Effect on Forskolin's activation of endogenous Rap1 (Rap1 [1]) | Effect on Forskolin activation of Flag-Rap1 in trans (Rap1 [2]; added ten minutes after Forskolin) | Effect on Forskolin activation of Flag-Rap1 in trans (Rap1 [2]; pretreatment, 10 μM, 20 minutes) | Effect on Forskolin-stimulated Cb1 tyrosine phosphorylation (Cb1) | Effect on Forskolin-stimulated C3G/Crk-L/Cb1 complex formation [3] | Effect of inhibitor on isoproterenol-induced AKT phosphorylation (AKT; 10 μM, 20 minutes pretreatment) | Activation of AKT (phosphothreonine 308) (AKT; 5 minutes) | Activation of endogenous Rap1 (Rap1 [2]; NIH3T3 cells, 10 μM, five minutes) |
| --- | --- | --- | --- | --- | --- | --- | --- | --- |
| O=S(=O)(NCCNC/C=C/c1ccc(Br)cc1)c1cccc2cnccc12 [H89, N-[2(Bromocimamylamino)ethyl]-5-isoquinolinesulfonamide] | blocked | still able to activate Flag-Rap1 in trans | blocked | inhibited | blocked | – | – | – |
| CC(C)(C)n1nc(-c2ccc(Cl)cc2)c2c(N)ncnc21 [PP2, 4-amino-5-(4-chlorophenyl)-7-(t-butyl)pyazolo[3,4-d]pyrimidine] | – | – | – | inhibited | blocked | blocked | – | – |
| CC(C)NCC(O)c1ccc(O)c(O)c1 (stereo not shown) [isoproterenol] | – | – | – | – | – | – | activated AKT | activated Rap1 |
